This note sets out measurements from the NIST ThermoML archive (doi:10.1016/j.fluid.2019.05.020).

Numbers after ± are expanded uncertainties.

The conditions of data set [1]: for Normal melting temperature: Crystal, DTA.
Data set [2] can be described thus: Molar enthalpy of transition or fusion. The settings on record: Crystal; DSC.

With `CCCCCCCCCCCCCCCC(=O)OCC(COC(=O)CCCCCCCCCCCCCCC)OC(=O)CCCCCCCCCCCCCCC` [1,2,3-propanetriyl tri(hexadecanoate)], the Normal melting temperature in data set [1] is 66.29 ± 0.65 °C. In addition, the “Molar enthalpy of transition or fusion” value in data set [2] was determined as 38.3 ± 2.1 kcal/mol.
As to `CCCCCCCCCCCCCCO` [1-tetradecanol], the Normal melting temperature in data set [1] was found to be 37.56 ± 0.91 °C. Also, in data set [2], the “Molar enthalpy of transition or fusion” value turned out to be 10.4 ± 1.24 kcal/mol.
With `CCCCCCCCCCO` [decan-1-ol], in data set [1] (Crystal 2, DSC), the Triple point temperature is given as 275.64 ± 4.1 K. Further, the Normal melting temperature in data set [1] worked out at 6.69 ± 0.55 °C. Besides, the “Molar enthalpy of transition or fusion” value in data set [2] was determined as 7.06 ± 0.932 kcal/mol.
Turning to `CCCCCCCCCC(=O)O` [decanoic acid], the Normal melting temperature in data set [1] worked out at 32.07 ± 0.49 °C. The “Molar enthalpy of transition or fusion” value in data set [2] is 6.25 ± 0.287 kcal/mol.
On to `CCCCCCCCCCCCO` [dodecan-1-ol], for which the Normal melting temperature in data set [1] is 24.63 ± 0.39 °C. Also, the “Molar enthalpy of transition or fusion” value in data set [2] was 7.53 ± 2.13 kcal/mol.
The like results for `CCCCCCCCCCCC(=O)O` [dodecanoic acid] were, in that order, 45.4 ± 0.65 °C and 7.99 ± 0.621 kcal/mol.
In the same order, the values of `CCCCCCCCCCCCCCCC(=O)O` [hexadecanoic acid] are 64.02 ± 0.55 °C and 11.7 ± 0.645 kcal/mol.
With `CCCCCCCCCCCCCCCCCC(=O)O` [octadecanoic acid], in data set [1], the Normal melting temperature was determined as 70.48 ± 0.49 °C. Moreover, in data set [2], the “Molar enthalpy of transition or fusion” value was found to be 13.4 ± 1.12 kcal/mol.
In the case of `CCCCCCCCCCCCCC(=O)O` [tetradecanoic acid], the Normal melting temperature in data set [1] came to 55.90 ± 0.73 °C. Further, in data set [2], the “Molar enthalpy of transition or fusion” value amounted to 9.92 ± 1.63 kcal/mol.
